Measured values taken from publication PMC5218480 (PLoS ONE, 2017).

Tested on: MV-4-11 cells
Test: Gene expression microarray analysis (Affymetrix PrimeView) and GSEA
Assay type: cell-based, human
Set-up: RFU PODN (11730768_x_at) / Fold change /veh PODN (11730768_x_at) / RFU LINC00158 (11744669_a_at) / Fold change /veh LINC00158 (11744669_a_at) / RFU DUSP10 (11751237_a_at) / Fold change /veh DUSP10 (11751237_a_at) / RFU ID3 (11757404_x_at) / Fold change /veh ID3 (11757404_x_at) / RFU PLEKHG5 (11737974_s_at) / Fold change /veh PLEKHG5 (11737974_s_at) / RFU LRRC4B (11730491_at) / Fold change /veh LRRC4B (11730491_at) / RFU GIMAP4 (11747438_a_at) / Fold change /veh GIMAP4 (11747438_a_at) / RFU KRT8 (11758183_x_at) / Fold change /veh KRT8 (11758183_x_at) / RFU CNN1 (11734310_a_at) / Fold change /veh CNN1 (11734310_a_at) / RFU VPS37D (11726825_at) / Fold change /veh VPS37D (11726825_at) / RFU C10orf10 (11716522_x_at) / Fold change /veh C10orf10 (11716522_x_at) / RFU KIR2DL2 /// KIR2DL4 /// KIR2DL5A /// KIR2DL5B /// KIR2DS1 /// KIR2DS2 /// KIR2DS3 /// KIR2DS4 /// KIR3DL3 /// KIR3DL3 /// KIR3DS1 (11738374_at) / Fold change /veh KIR2DL2 /// KIR2DL4 /// KIR2DL5A /// KIR2DL5B /// KIR2DS1 /// KIR2DS2 /// KIR2DS3 /// KIR2DS4 /// KIR3DL3 /// KIR3DL3 /// KIR3DS1 (11738374_at) / RFU C1QL1 (11718748_at) / Fold change /veh C1QL1 (11718748_at) / RFU TMPRSS4 (11747572_a_at) / Fold change /veh TMPRSS4 (11747572_a_at) / RFU HAMP (11756126_x_at) / Fold change /veh HAMP (11756126_x_at) / RFU RNFT2 (11725882_a_at) / Fold change /veh RNFT2 (11725882_a_at) / RFU NR4A2 (11747474_a_at) / Fold change /veh NR4A2 (11747474_a_at) / RFU ABCC12 (11746883_a_at) / Fold change /veh ABCC12 (11746883_a_at) / RFU TMEM136 (11760407_x_at) / Fold change /veh TMEM136 (11760407_x_at) / RFU CLDN22 /// WWC2 (11732394_at) / Fold change /veh CLDN22 /// WWC2 (11732394_at) / RFU HLA-DPB1 (11760878_x_at) / Fold change /veh HLA-DPB1 (11760878_x_at) / RFU SPINT1 (11716480_a_at) / Fold change /veh SPINT1 (11716480_a_at) / RFU GAP43 (11754022_s_at) / Fold change /veh GAP43 (11754022_s_at) / RFU A4GNT (11735810_at) / Fold change /veh A4GNT (11735810_at) / RFU PRB3 (11715151_x_at) / Fold change /veh PRB3 (11715151_x_at) / RFU TUBB4B (11761932_at) / Fold change /veh TUBB4B (11761932_at) / RFU CAPN14 (11732068_a_at) / Fold change /veh CAPN14 (11732068_a_at) / RFU TMCC2 (11721928_a_at) / Fold change /veh TMCC2 (11721928_a_at) / RFU IRGQ (11745062_a_at) / Fold change /veh IRGQ (11745062_a_at) / RFU FAM174B (11720279_a_at) / Fold change /veh FAM174B (11720279_a_at) / RFU TMPRSS4 (11748680_a_at) / Fold change /veh TMPRSS4 (11748680_a_at) / RFU FAM212B (11763350_a_at) / Fold change /veh FAM212B (11763350_a_at) / RFU PLEKHG5 (11743358_a_at) / Fold change /veh PLEKHG5 (11743358_a_at) / RFU ZSCAN30 (11745921_a_at) / Fold change /veh ZSCAN30 (11745921_a_at) / RFU CMKLR1 (11741424_a_at) / Fold change /veh CMKLR1 (11741424_a_at) / RFU LOC101060620 /// MAPK8IP1 (11723275_at) / Fold change /veh LOC101060620 /// MAPK8IP1 (11723275_at) / RFU SPTSSB (11747773_x_at) / Fold change /veh SPTSSB (11747773_x_at) / RFU PRSS12 (11739890_at) / Fold change /veh PRSS12 (11739890_at) / RFU BIN1 (11741810_x_at) / Fold change /veh BIN1 (11741810_x_at) / RFU WNT11 (11732464_a_at) / Fold change /veh WNT11 (11732464_a_at) / RFU C10orf10 (11716521_a_at) / Fold change /veh C10orf10 (11716521_a_at) / RFU C5orf56 (11738089_at) / Fold change /veh C5orf56 (11738089_at) / RFU CYB561 (11721691_x_at) / Fold change /veh CYB561 (11721691_x_at) / RFU ANKRD19P (11752326_a_at) / Fold change /veh ANKRD19P (11752326_a_at) / RFU OR2T12 /// OR2T33 /// OR2T8 (11738714_s_at) / Fold change /veh OR2T12 /// OR2T33 /// OR2T8 (11738714_s_at) / RFU VCAN (11748164_a_at) / Fold change /veh VCAN (11748164_a_at) / RFU JSRP1 (11732532_at) / Fold change /veh JSRP1 (11732532_at) / RFU KRTAP10-11 (11738290_x_at) / Fold change /veh KRTAP10-11 (11738290_x_at) / RFU MYO3A (11730013_a_at) / Fold change /veh MYO3A (11730013_a_at) / RFU EBF3 (11725865_a_at) / Fold change /veh EBF3 (11725865_a_at) / RFU CAMK2N1 (11719241_x_at) / Fold change /veh CAMK2N1 (11719241_x_at) / RFU C5orf56 (11738088_a_at) / Fold change /veh C5orf56 (11738088_a_at) / RFU OLFML3 (11715873_a_at) / Fold change /veh OLFML3 (11715873_a_at) / RFU LOC100653217 /// NTM (11731650_a_at) / Fold change /veh LOC100653217 /// NTM (11731650_a_at) / RFU MAPK11 (11762145_a_at) / Fold change /veh MAPK11 (11762145_a_at) / RFU FIZ1 (11724087_x_at) / Fold change /veh FIZ1 (11724087_x_at) / RFU OASL (11726364_x_at) / Fold change /veh OASL (11726364_x_at) / RFU SOX15 (11748057_x_at) / Fold change /veh SOX15 (11748057_x_at) / RFU CD79A (11719716_a_at) / Fold change /veh CD79A (11719716_a_at) / RFU HIST1H1D (11736915_at) / Fold change /veh HIST1H1D (11736915_at) / RFU CASKIN2 (11723855_a_at) / Fold change /veh CASKIN2 (11723855_a_at) / RFU LOC730098 (11760151_x_at) / Fold change /veh LOC730098 (11760151_x_at) / RFU OR4N2 (11742367_at) / Fold change /veh OR4N2 (11742367_at) / RFU PRRT2 (11749266_a_at) / Fold change /veh PRRT2 (11749266_a_at) / RFU SNX32 (11753110_a_at) / Fold change /veh SNX32 (11753110_a_at) / RFU CDHR5 (11726645_a_at) / Fold change /veh CDHR5 (11726645_a_at) / RFU RCAN1 (11760418_a_at) / Fold change /veh RCAN1 (11760418_a_at) / RFU FAM167A (11723789_a_at) / Fold change /veh FAM167A (11723789_a_at) / RFU FAM26E (11764081_at) / Fold change /veh FAM26E (11764081_at) / RFU ISYNA1 (11749810_s_at) / Fold change /veh ISYNA1 (11749810_s_at) / RFU ACY1 (11761880_at) / Fold change /veh ACY1 (11761880_at) / RFU 11764098_at / Fold change /veh 11764098_at / RFU SAMD14 (11745864_x_at) / Fold change /veh SAMD14 (11745864_x_at) / RFU NPB (11741838_a_at) / Fold change /veh NPB (11741838_a_at) / RFU TMPRSS6 (11731388_a_at) / Fold change /veh TMPRSS6 (11731388_a_at) / RFU KRTAP10-2 (11738614_at) / Fold change /veh KRTAP10-2 (11738614_at) / RFU ARHGAP8 /// PRR5-ARHGAP8 (11727945_x_at) / Fold change /veh ARHGAP8 /// PRR5-ARHGAP8 (11727945_x_at) / RFU KRTAP5-7 /// NADSYN1 (11734609_at) / Fold change /veh KRTAP5-7 /// NADSYN1 (11734609_at) / RFU RASL12 (11751679_a_at) / Fold change /veh RASL12 (11751679_a_at) / RFU CDKN2B (11736163_a_at) / Fold change /veh CDKN2B (11736163_a_at) / RFU PRF1 (11729649_at) / Fold change /veh PRF1 (11729649_at) / RFU, ZNF638 /// ZNF638-IT1 / Fold change vs veh, ZNF638 /// ZNF638-IT1 / RFU, PANK3 / Fold change vs veh, PANK3 / RFU, SH3YL1 / Fold change vs veh, SH3YL1 / RFU, ZEB2 / Fold change vs veh, ZEB2 / RFU, NRIP1 / Fold change vs veh, NRIP1 / RFU, PTTG1IP / Fold change vs veh, PTTG1IP / RFU, CAPN2 / Fold change vs veh, CAPN2 / RFU, MED14 / Fold change vs veh, MED14 / RFU, SNORA58 / Fold change vs veh, SNORA58 / RFU, C1orf63 / Fold change vs veh, C1orf63 / RFU, LRRFIP1 / Fold change vs veh, LRRFIP1 / RFU, NDUFAF7 / Fold change vs veh, NDUFAF7 / RFU, SLC12A2 / Fold change vs veh, SLC12A2 / RFU, IBTK / Fold change vs veh, IBTK / RFU, ESF1 / Fold change vs veh, ESF1 / Fold change vs veh, TMEM50B / RFU, TAOK1 / Fold change vs veh, TAOK1 / RFU, ACBD3 / Fold change vs veh, ACBD3 / RFU, TMA16 / Fold change vs veh, TMA16 / RFU, RWDD3 / Fold change vs veh, RWDD3 / RFU, BCAT1 / Fold change vs veh, BCAT1 / RFU, EDEM3 / Fold change vs veh, EDEM3 / RFU, TMEM33 / Fold change vs veh, TMEM33 / RFU, WDR75 / Fold change vs veh, WDR75 / RFU, AHCTF1 / Fold change vs veh, AHCTF1 / RFU, TFRC / Fold change vs veh, TFRC / RFU, ZDHHC17 / Fold change vs veh, ZDHHC17 / RFU, NOM1 / Fold change vs veh, NOM1 / RFU, ARL8B / Fold change vs veh, ARL8B / RFU, ZBTB11 / Fold change vs veh, ZBTB11 / RFU, TAMM41 / Fold change vs veh, TAMM41 / RFU, KIAA1704 /// LOC100996395 / Fold change vs veh, KIAA1704 /// LOC100996395 / RFU, ING1 / Fold change vs veh, ING1 / RFU, TRMT61B / Fold change vs veh, TRMT61B / RFU, FUBP3 / Fold change vs veh, FUBP3 / RFU, TP53 / Fold change vs veh, TP53 / RFU, TNKS2 / Fold change vs veh, TNKS2 / RFU, ZFP14 / Fold change vs veh, ZFP14 / RFU, ACTR2 / Fold change vs veh, ACTR2 / RFU, PPP3R1 / Fold change vs veh, PPP3R1 / RFU, PIK3R1 / Fold change vs veh, PIK3R1 / RFU, HNRNPA1 / Fold change vs veh, HNRNPA1 / RFU, RNF170 / Fold change vs veh, RNF170 / RFU, ZNF28 / Fold change vs veh, ZNF28 / RFU, RNGTT / Fold change vs veh, RNGTT / RFU, OGT / Fold change vs veh, OGT / RFU, BRD1 / Fold change vs veh, BRD1 / RFU, MARS / Fold change vs veh, MARS / RFU, ZNF655 / Fold change vs veh, ZNF655 / RFU, FAHD1 / Fold change vs veh, FAHD1 / RFU, BDP1 / Fold change vs veh, BDP1 / RFU, LRRCC1 / Fold change vs veh, LRRCC1 / RFU, ARID1A / Fold change vs veh, ARID1A / RFU, ZNF146 / Fold change vs veh, ZNF146 / RFU, ZNF330 / Fold change vs veh, ZNF330 / RFU, GPN3 / Fold change vs veh, GPN3 / RFU, C9orf123 / Fold change vs veh, C9orf123 / RFU, N4BP2L2 / Fold change vs veh, N4BP2L2 / RFU, ARFIP1 / Fold change vs veh, ARFIP1 / RFU, FAM179B / Fold change vs veh, FAM179B / RFU, BCL10 / Fold change vs veh, BCL10 / RFU, UHRF1BP1L / Fold change vs veh, UHRF1BP1L / RFU, BET1 / Fold change vs veh, BET1 / RFU, CNOT2 / Fold change vs veh, CNOT2 / RFU, ZNF268 / Fold change vs veh, ZNF268 / Fold change vs veh, ZNF507 / RFU, DGCR2 / Fold change vs veh, DGCR2 / RFU, WDSUB1 / Fold change vs veh, WDSUB1 / Fold change vs veh, HSP90B1 /// MIR3652 / RFU, ADSS / Fold change vs veh, ADSS / RFU, GK / Fold change vs veh, GK / RFU, ZNF148 / Fold change vs veh, ZNF148 / RFU, TAF9 / Fold change vs veh, TAF9 / RFU, SLC1A5 / Fold change vs veh, SLC1A5 / RFU, SLMO2 / Fold change vs veh, SLMO2 / RFU, ABCC4 / Fold change vs veh, ABCC4 / RFU, LOC101060439 /// RAP1B / Fold change vs veh, LOC101060439 /// RAP1B / RFU, RFX7 / Fold change vs veh, RFX7 / RFU, GTPBP10 / Fold change vs veh, GTPBP10 / RFU, CNEP1R1 / Fold change vs veh, CNEP1R1 / RFU, BIVM-ERCC5 /// ERCC5 / Fold change vs veh, BIVM-ERCC5 /// ERCC5 / RFU, ILF3 / Fold change vs veh, ILF3 / RFU 11762660_at / Fold change /veh 11762660_at / RFU VCAN (11757783_s_at) / Fold change /veh VCAN (11757783_s_at) / RFU DDX43 (11728927_at) / Fold change /veh DDX43 (11728927_at) / RFU KRT8 (11758188_x_at) / Fold change /veh KRT8 (11758188_x_at) / RFU NKD1 (11759106_at) / Fold change /veh NKD1 (11759106_at) / RFU SRD5A1 (11742802_a_at) / Fold change /veh SRD5A1 (11742802_a_at) / RFU TPSAB1 /// TPSB2 (11721975_s_at) / Fold change /veh TPSAB1 /// TPSB2 (11721975_s_at) / RFU GSTM3 (11746129_a_at) / Fold change /veh GSTM3 (11746129_a_at) / RFU IL23R (11737362_x_at) / Fold change /veh IL23R (11737362_x_at) / RFU TMEM51 (11727254_a_at) / Fold change /veh TMEM51 (11727254_a_at) / RFU PIWIL2 (11732686_x_at) / Fold change /veh PIWIL2 (11732686_x_at) / RFU ORM1 (11744905_x_at) / Fold change /veh ORM1 (11744905_x_at) / RFU CCDC152 (11743942_at) / Fold change /veh CCDC152 (11743942_at) / RFU ECM1 (11717891_a_at) / Fold change /veh ECM1 (11717891_a_at) / RFU IL23R (11748794_a_at) / Fold change /veh IL23R (11748794_a_at) / RFU TNFAIP8L3 (11732012_x_at) / Fold change /veh TNFAIP8L3 (11732012_x_at) / RFU MBOAT4 (11741988_at) / Fold change /veh MBOAT4 (11741988_at) / RFU 11764193_at / Fold change /veh 11764193_at / RFU TMEM53 (11763286_at) / Fold change /veh TMEM53 (11763286_at) / RFU MAGEB2 (11727129_at) / Fold change /veh MAGEB2 (11727129_at) / RFU TMEM200A (11744735_a_at) / Fold change /veh TMEM200A (11744735_a_at) / RFU CCDC152 (11751479_a_at) / Fold change /veh CCDC152 (11751479_a_at) / RFU FAM211A (11726209_a_at) / Fold change /veh FAM211A (11726209_a_at) / RFU RGS16 (11746705_a_at) / Fold change /veh RGS16 (11746705_a_at) / RFU VCAN (11755009_s_at) / Fold change /veh VCAN (11755009_s_at) / RFU RHOB (11743442_s_at) / Fold change /veh RHOB (11743442_s_at) / RFU RGS16 (11720943_a_at) / Fold change /veh RGS16 (11720943_a_at) / RFU RGS16 (11720944_at) / Fold change /veh RGS16 (11720944_at) / RFU, VPS4B / Fold change vs veh, VPS4B / RFU, CREB1 / Fold change vs veh, CREB1 / RFU, DNAJC13 / Fold change vs veh, DNAJC13 / RFU, GNAQ / Fold change vs veh, GNAQ / RFU, CDK5R1 / Fold change vs veh, CDK5R1 / RFU, ZRANB3 / Fold change vs veh, ZRANB3 / RFU, CUL4A / Fold change vs veh, CUL4A / RFU, CCNY / Fold change vs veh, CCNY / RFU, UFL1 / Fold change vs veh, UFL1 / RFU, COG3 / Fold change vs veh, COG3 / RFU, DIAPH2 / Fold change vs veh, DIAPH2 / RFU, SKA2 / Fold change vs veh, SKA2 / RFU, AFF3 / Fold change vs veh, AFF3 / RFU, LMF1 / Fold change vs veh, LMF1 / RFU, IPO11 / Fold change vs veh, IPO11 / RFU, DFFB / Fold change vs veh, DFFB / RFU, FOXP1 / Fold change vs veh, FOXP1 / RFU, CARD8 / Fold change vs veh, CARD8 / RFU, STRN3 / Fold change vs veh, STRN3 / RFU, ADK / Fold change vs veh, ADK / RFU, RASSF2 / Fold change vs veh, RASSF2 / RFU, WIPF1 / Fold change vs veh, WIPF1 / RFU, LARP1B / Fold change vs veh, LARP1B / RFU, RASA1 / Fold change vs veh, RASA1 / RFU, RB1 / Fold change vs veh, RB1 / RFU, PPFIA1 / Fold change vs veh, PPFIA1 / RFU, MAT2A / Fold change vs veh, MAT2A / RFU, CCT5 / Fold change vs veh, CCT5 / RFU, WDR92 / Fold change vs veh, WDR92 / RFU, CUX1 / Fold change vs veh, CUX1 / RFU, TTC7A / Fold change vs veh, TTC7A / RFU, TMEM135 / Fold change vs veh, TMEM135 / RFU, DEPTOR / Fold change vs veh, DEPTOR / RFU, CPM / Fold change vs veh, CPM / RFU, DNAJB6 / Fold change vs veh, DNAJB6 / RFU, CACNA2D3 / Fold change vs veh, CACNA2D3 / RFU, DTX4 / Fold change vs veh, DTX4 / RFU, TFCP2 / Fold change vs veh, TFCP2 / RFU, GMCL1 /// GMCL1P1 / Fold change vs veh, GMCL1 /// GMCL1P1 / RFU, AEBP2 / Fold change vs veh, AEBP2 / RFU, SNHG1 /// SNORD22 /// SNORD25 /// SNORD26 /// SNORD27 /// SNORD28 /// SNORD29 /// SNORD31 / Fold change vs veh, SNHG1 /// SNORD22 /// SNORD25 /// SNORD26 /// SNORD27 /// SNORD28 /// SNORD29 /// SNORD31 / Fold change (Aza/veh), C12orf56 (ProbeSet 11735607_a_at) / Fold change (ACY-1035/veh), C12orf56 (ProbeSet 11735607_a_at) / Fold change (Aza/veh), FGFR1OP (ProbeSet 11751329_s_at) / Fold change (ACY-1035/veh), FGFR1OP (ProbeSet 11751329_s_at) / Fold change (Aza/veh), VPS36 (ProbeSet 11739960_a_at) / Fold change (ACY-1035/veh), VPS36 (ProbeSet 11739960_a_at) / RFU SYPL1 (11715823_x_at) / Fold change /veh SYPL1 (11715823_x_at) / RFU IGFBP7 (11715501_s_at) / Fold change /veh IGFBP7 (11715501_s_at) / RFU REEP3 (11722064_at) / Fold change /veh REEP3 (11722064_at) / RFU IGLL1 (11728026_x_at) / Fold change /veh IGLL1 (11728026_x_at): dose or concentration left out as unconfirmed
Settings: MV-4-11 cells, 48 hours

Nc1ncn([C@@H]2O[C@H](CO)[C@@H](O)[C@H]2O)c(=O)n1 [azacitidine]
RFU RNFT2 (11725882_a_at): 15.64 RFU
